Values quoted from earlier work in patent US9334250B2, “Multifunctional radical quenchers for the treatment of mitochondrial dysfunction” (Arizona Board of Regents, A Body Corporate of the State of …, priority 2012, dated 2016).

Conditions: James et al. (2005) J Biol. Chem. 280, 21295-21312

calculated octanol-water partition coefficient: > 1e+20
Compound: COC1=C(OC)C(=O)C(C/C=C(\C)CC/C=C(\C)CC/C=C(\C)CC/C=C(\C)CC/C=C(\C)CC/C=C(\C)CC/C=C(\C)CC/C=C(\C)CC/C=C(\C)CCC=C(C)C)=C(C)C1=O [coenzyme Q10]
